Target: T1, P2X7 (UniProt Q99572)
T1 sequence (Q99572 1-595): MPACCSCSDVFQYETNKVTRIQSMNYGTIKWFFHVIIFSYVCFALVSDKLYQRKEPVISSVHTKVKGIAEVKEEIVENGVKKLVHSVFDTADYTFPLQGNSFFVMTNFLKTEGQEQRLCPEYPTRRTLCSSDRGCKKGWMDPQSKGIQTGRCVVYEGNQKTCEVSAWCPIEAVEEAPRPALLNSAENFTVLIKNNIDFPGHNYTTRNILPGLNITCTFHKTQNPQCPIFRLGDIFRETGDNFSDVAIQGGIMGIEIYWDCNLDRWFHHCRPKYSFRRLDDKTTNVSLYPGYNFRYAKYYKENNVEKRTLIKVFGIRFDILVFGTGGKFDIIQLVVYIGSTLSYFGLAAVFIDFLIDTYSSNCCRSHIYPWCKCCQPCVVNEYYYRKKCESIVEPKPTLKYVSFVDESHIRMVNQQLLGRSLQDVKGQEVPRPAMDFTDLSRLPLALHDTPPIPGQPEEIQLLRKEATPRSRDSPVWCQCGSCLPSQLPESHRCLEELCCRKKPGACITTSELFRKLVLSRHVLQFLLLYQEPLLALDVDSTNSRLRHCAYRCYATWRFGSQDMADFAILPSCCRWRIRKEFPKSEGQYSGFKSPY
Experiment: pIC50 values for P2X7 (Table 1)
Assay type: cell-based
Description: Intracellular Calcium Flux (FLIPR) Assay
Compound and Reagent Preparation
Stock solutions of compounds were prepared from powders as a 10 mM DMSO stock solution. These solutions were stored at RT during the two week period of these experiments to prevent freeze-thaw of the DMSO stocks. The DMSO stocks were added to the appropriate assay buffer at a concentration of 10 μM, and then diluted serially to the final concentrations that were tested. […] The aqueous solutions of compounds as well as ATP (Sigma A7699) and BzATP (Sigma B6396) were prepared fresh for each day of experiment.
1321N1 cells stably expressing the full length human P2X7 gene (1321N1-hP2X7) and HEK293 cells stably expressing the full length rat P2X7 gene (HEK293-rP2X7) were obtained from the Roche Cell Culture Facility. 1321N1-hP2X7 cells were grown in Dulbecco's Modified Eagle's Medium (DMEM) high glucose supplemented with 10% FBS and 250 μg/mL G418. HEK293-rP2X7 cells were grown in DMEM/F-12 supplemented with 10% FBS, 1 mM CaCl2, 2 mM MgCl2, 2 mM L-Glutamine and 500 μg/ml G418. Cells were split such that they never became >70% confluent.
Intracellular Calcium Flux (FLIPR)
On the day prior to the experiment, 1321N1-hP2X7 or HEK293-rP2X7 cells were released into suspension with calcium-free PBS+Versene and washed by centrifugation with calcium-free PBS to remove the Versene.
On the day of the experiment, plates were washed with FLIPR buffer (calcium- and magnesium-free Hank's Balanced Salt Solution (HBSS) supplemented with 10 mM Hepes, 2.5 mM probenecid and 2 mM calcium chloride) using a BIO-TEK 96 channel plate washer and incubated with […] fluo-3 dye at 37° C. for one hr. The dye was then removed by plate washing and the cells were allowed to equilibrate for 20 min at room temperature with antagonist or vehicle (FLIPR buffer). Agonist (100 μM BzATP final concentration for hP2X7; 5 μM BzATP final concentration or rP2X7) was added online with the FLIPR and fluorescence measurements made at 1 sec intervals for 60 sec followed by 3 sec intervals for a further 4 min (5 min total). A final addition of 5 μM ionomycin was made and the maximal BzATP-evoked fluorescence normalized to the maximal ionomycin-evoked fluorescence.

Compound | pIC50
COc1cc(NC(=O)N2C=CC(=O)C[C@H]2c2ccc(F)cc2)c(C(C)C)cc1OC [Compound 13, (S)-2-(4-Fluoro-phenyl)-4-oxo-3,4-dihydro-2H-pyridine-1-carboxylic acid (2-isopropyl-4,5-dimethoxy-phenyl)-amide] | 6.66
CSc1cc(NC(=O)N2C=CC(=O)C[C@H]2c2ccc(F)cc2)c(Br)cc1Cl [Compound 14, (S)-2-(4-Fluoro-phenyl)-4-oxo-3,4-dihydro-2H-pyridine-1-carboxylic acid (2-bromo-4-chloro-5-methylsulfanyl-phenyl)-amide] | 6.726
CS(=O)(=O)c1cc(NC(=O)N2C=CC(=O)C[C@H]2c2ccc(F)cc2)c(Br)cc1Cl [Compound 15, (S)-2-(4-Fluoro-phenyl)-4-oxo-3,4-dihydro-2H-pyridine-1-carboxylic acid (2-bromo-4-chloro-5-methanesulfonyl-phenyl)-amide] | 5.94
C[S@@+]([O-])c1cc(NC(=O)N2C=CC(=O)C[C@H]2c2ccc(F)cc2)c(Br)cc1Cl [Compound 16, (S)-2-(4-Fluoro-phenyl)-4-oxo-3,4-dihydro-2H-pyridine-1-carboxylic acid [2-bromo-4-chloro-5-((R)-methanesulfinyl)-phenyl]-amide] | 6.623
C[S@+]([O-])c1cc(NC(=O)N2C=CC(=O)C[C@H]2c2ccc(F)cc2)c(Br)cc1Cl [Compound 17, (S)-2-(4-Fluoro-phenyl)-4-oxo-3,4-dihydro-2H-pyridine-1-carboxylic acid [2-bromo-4-chloro-5-((S)-methanesulfinyl)-phenyl]-amide] | 5.86
O=C1C=CN(C(=O)Nc2cc(F)c(Cl)cc2Br)[C@H](c2ccc(F)cc2)C1 [Compound 18, (S)-2-(4-Fluoro-phenyl)-4-oxo-3,4-dihydro-2H-pyridine-1-carboxylic acid (2-bromo-4-chloro-5-fluoro-phenyl)-amide] | 6.286
COc1cc(Br)c(NC(=O)N2C=CC(=O)C[C@H]2c2cccc(F)c2)cc1OC [Compound 19, (S)-2-(3-Fluoro-phenyl)-4-oxo-3,4-diohydro-2H-pyridine-1-carboxylic acid (2-bromo-4,5-dimethoxy-phenyl)-amide] | 8.56
COc1cc(NC(=O)N2C=CC(=O)CC2c2cccnc2)c(Br)cc1C (stereo not shown) [Compound 20, 4-Oxo-3,4-dihydro-2H-[2,3′]bipyridinyl-1-carboxylic acid (2-bromo-5-methoxy-4-methyl-phenyl)-amide] | 5.995
COc1ccc(Br)c(NC(=O)N2C=CC(=O)C[C@H]2c2ccc(F)cc2)n1 [Compound 21, (S)-2-(4-Fluoro-phenyl)-4-oxo-3,4-dihydro-2H-pyridine-1-carboxylic acid (3-bromo-6-methoxy-pyridin-2-yl)-amide] | 6.32
COC(=O)c1cc(Br)c(NC(=O)N2C=CC(=O)CC2c2ccc(F)cc2)cc1OC (stereo not shown) [Compound 22, 5-Bromo-4-{[2-(4-fluoro-phenyl)-4-oxo-3,4-dihydro-2H-pyridine-1-carbonyl]-amino}-2-methoxy-benzoic acid methyl ester] | 7.15
Cc1ccc(S(=O)(=O)n2nc(C)c3cc(Br)c(NC(=O)N4C=CC(=O)C[C@H]4c4ccc(F)cc4)cc32)cc1 [Compound 23, (S)-2-(4-Fluoro-phenyl)-4-oxo-3,4-dihydro-2H-pyridine-1-carboxylic acid [5-bromo-3-methyl-1-(toluene-4-sulfonyl)-1H-indazol-6-yl]-amide] | 5.245
O=C1C=CN(C(=O)Nc2cc(O)c(Cl)cc2Br)[C@H](c2ccc(F)cc2)C1 [Compound 24, (S)-2-(4-Fluoro-phenyl)-4-oxo-3,4-dihydro-2H-pyridine-1-carboxylic acid (2-bromo-4-chloro-5-hydroxy-phenyl)-amide] | 6.71
CNC(=O)COc1cc(NC(=O)N2C=CC(=O)C[C@H]2c2ccc(F)cc2)c(Br)cc1Cl [Compound 25, (S)-2-(4-Fluoro-phenyl)-4-oxo-3,4-dihydro-2H-pyridine-1-carboxylic acid (2-bromo-4-chloro-5-methylcarbamoylmethoxy-phenyl)-amide] | 6.785
COc1cc(C)c(NC(=O)N2C=CC(=O)C[C@H]2c2ccc(F)cc2)cc1OC [Compound 26, (S)-2-(4-Fluoro-phenyl)-4-oxo-3,4-dihydro-2H-pyridine-1-carboxylic acid (4,5-dimethoxy-2-methyl-phenyl)-amide] | 7.93
COC(=O)c1cc(NC(=O)N2C=CC(=O)C[C@H]2c2ccc(F)cc2)c(Br)cc1Cl [Compound 27, 4-Bromo-2-chloro-5-{[(S)-2-(4-fluoro-phenyl)-4-oxo-3,4-dihydro-2H-pyridine-1-carbonyl]-amino}-benzoic acid methyl ester] | 7.26
COc1cc(NC(=O)N2C=CC(=O)C[C@H]2c2ccc(F)cc2)c(Br)cc1S(C)(=O)=O [Compound 28, (S)-2-(4-Fluoro-phenyl)-4-oxo-3,4-dihydro-2H-pyridine-1-carboxylic acid (2-bromo-4-methanesulfonyl-5-methoxy-phenyl)-amide] | 6.435
COc1cc(NC(=O)N2C=CC(=O)C[C@H]2c2cccc(F)c2)c(Br)cc1C [Compound 29, (S)-2-(3-Fluoro-phenyl)-4-oxo-3,4-dihydro-2H-pyridine-1-carboxylic acid (2-bromo-5-methoxy-4-methyl-phenyl)-amide] | 7.93
COC(=O)COc1cc(NC(=O)N2C=CC(=O)C[C@H]2c2ccc(F)cc2)c(Br)cc1Cl [Compound 30, (4-Bromo-2-chloro-5-{[(S)-2-(4-fluoro-phenyl)-4-oxo-3,4-dihydro-2H-pyridine-1-carbonyl]-amino}-phenoxy)-acetic acid methyl ester] | 6.7
COC(=O)COc1cc(N(CC(=O)OC)C(=O)N2C=CC(=O)C[C@H]2c2ccc(F)cc2)c(Br)cc1Cl [Compound 31, (4-Bromo-2-chloro-5-{[(S)-2-(4-fluoro-phenyl)-4-oxo-3,4-dihydro-2H-pyridine-1-carbonyl]-methoxycarbonylmethyl-amino}-phenoxy)-acetic acid methyl ester] | 5.27
O=C(O)COc1cc(NC(=O)N2C=CC(=O)C[C@H]2c2ccc(F)cc2)c(Br)cc1Cl [Compound 32, (4-Bromo-2-chloro-5-{[(S)-2-(4-fluoro-phenyl)-4-oxo-3,4-dihydro-2H-pyridine-1-carbonyl]-amino}-phenoxy)-acetic acid] | 5.365
COCCOc1cc(NC(=O)N2C=CC(=O)C[C@H]2c2ccc(F)cc2)c(Br)cc1Cl [Compound 33, (S)-2-(4-Fluoro-phenyl)-4-oxo-3,4-dihydro-2H-pyridine-1-carboxylic acid [2-bromo-4-chloro-5-(2-methoxy-ethoxy)-phenyl]-amide] | 7.27
COc1ccc(NC(=O)N2C=CC(=O)C[C@H]2c2ccc(F)cc2)cc1OC [Compound 34, (S)-2-(4-Fluoro-phenyl)-4-oxo-3,4-dihydro-2H-pyridine-1-carboxylic acid (3,4-dimethoxy-phenyl)-amide] | 7.2425
COc1cc(NC(=O)N2C=CC(=O)C[C@H]2c2ccc(F)cc2)c(F)cc1Cl [Compound 35, (S)-2-(4-Fluoro-phenyl)-4-oxo-3,4-dihydro-2H-pyridine-1-carboxylic acid (4-chloro-2-fluoro-5-methoxy-phenyl)-amide] | 7.195
Cc1n[nH]c2cc(NC(=O)N3C=CC(=O)C[C@H]3c3ccc(F)cc3)c(Br)cc12 [Compound 36, (S)-2-(4-Fluoro-phenyl)-4-oxo-3,4-dihydro-2H-pyridine-1-carboxylic acid (5-bromo-3-methyl-1H-indazol-6-yl)-amide] | 6.905
O=C1C=CN(C(=O)Nc2cc3c(cc2Br)OCO3)C(c2ccc(F)cc2)C1 (stereo not shown) [Compound 37] | 7.457

Reference: patent publication US8153809B2, “Dihydropyridone ureas as P2X7 modulators” (Roche Palo Alto LLC, priority 2008, dated 2012)
